Laboratory results as given in ChEMBL document CHEMBL5370564, “Discovery of novel hybrids of mTOR inhibitor and NO donor as potential anti-tumor therapeutics” (Bioorg Med Chem, 2023).
Activity calls are given as the source filed them. The calls are words filed in the database; no cut-off is given here.

Legend:
[1] = target: Serine/threonine-protein kinase mTOR (Homo sapiens, UniProt P42345); assay: Inhibition of mTOR (unknown origin) using Ulight-4E-BP1 peptide as substrate incubated for 45 mins in presence of ATP by Lance Ultra assay
HL-60 [2] = assay: Induction of NO release in human HL-60 cells at 100 uM incubated for 12 hrs by griess reagent based colorimetric assay; type: functional, cell-based
HepG2 = assay: Antiproliferative activity against human HepG2 cells assessed as inhibition of cell growth incubated for 70 hrs by CCK-8 assay; type: functional, cell-based; details: HepG2, 70 h
MCF7 = assay: Antiproliferative activity against human MCF7 cells assessed as inhibition of cell growth incubated for 70 hrs by CCK-8 assay; type: functional, cell-based; details: MCF7, 70 h
HL-60 [3] = assay: Antiproliferative activity against human HL-60 cells assessed as inhibition of cell growth incubated for 70 hrs by CCK-8 assay; type: functional, cell-based; details: HL-60, 70 h
[4] = Cytotoxicity against HUVEC assessed as inhibition of cell growth incubated for 70 hrs by CCK-8 assay; type: toxicity, cell-based; details: human, HUVEC cells
mTORC2 (Homo sapiens) = assay: Inhibition of mTORC2 in human HL-60 cells assessed as reduction in Akt phosphorylation at S473 residue incubated for 24 hrs by Western blot assay; details: dose 20-160 nM
mTORC1 (Homo sapiens) = assay: Inhibition of mTORC1 in human HL-60 cells assessed as reduction in S6 phosphorylation at Ser235/236 residue incubated for 24 hrs by Western blot assay; details: dose 20-160 nM

IC50 [1]	IC50 (HepG2)	IC50 (MCF7)	IC50 (HL-60 [3])	inhibition (mTORC2 (Homo sapiens))	inhibition (mTORC1 (Homo sapiens))	Structure (SMILES)	Activity (HL-60 [2])	IC50 at 70 h [4]
0.00331 µM	1.05 µM	2.7 µM	0.08 µM			Nc1nc2cc(-c3nn(CCCC(=O)OCCOc4no[n+]([O-])c4S(=O)(=O)c4ccccc4)c4ncnc(N)c34)ccc2o1	Active	8.94 µM
0.00365 µM	0.24 µM	0.88 µM	0.02 µM	Dose-Dependent Effect	Dose-Dependent Effect	Nc1nc2cc(-c3nn(CCCC(=O)OCC#CCOc4no[n+]([O-])c4S(=O)(=O)c4ccccc4)c4ncnc(N)c34)ccc2o1	Active	> 10 µM
0.00982 µM	> 10 µM	> 10 µM	7.47 µM			Nc1nc2cc(-c3nn(CCCC(=O)OCCCO[N+](=O)[O-])c4ncnc(N)c34)ccc2o1	Active	> 10 µM
0.337 µM						Nc1nc2cc(-c3nn(CCCC(=O)OCc4cccc(OCc5c(-c6ccccc6)no[n+]5[O-])c4)c4ncnc(N)c34)ccc2o1		
0.00639 µM	1.32 µM	2.41 µM	0.09 µM			Nc1nc2cc(-c3nn(CCCC(=O)OCCCOc4no[n+]([O-])c4S(=O)(=O)c4ccccc4)c4ncnc(N)c34)ccc2o1	Active	9.37 µM
0.00952 µM	1.43 µM	2.72 µM	0.16 µM			Nc1nc2cc(-c3nn(CCCC(=O)OCCCCCOc4no[n+]([O-])c4S(=O)(=O)c4ccccc4)c4ncnc(N)c34)ccc2o1	Active	> 10 µM
0.011 µM						Nc1nc2cc(-c3nn(CCCC(=O)OCCCCCCOc4no[n+]([O-])c4S(=O)(=O)c4ccccc4)c4ncnc(N)c34)ccc2o1		
0.0095 µM	> 10 µM	> 10 µM	> 10 µM			Nc1nc2cc(-c3nn(CCCC(=O)OCCO[N+](=O)[O-])c4ncnc(N)c34)ccc2o1		> 10 µM
0.0451 µM						Nc1nc2cc(-c3nn(CCCC(=O)OCc4ccccc4OCc4c(-c5ccccc5)no[n+]4[O-])c4ncnc(N)c34)ccc2o1		
0.00596 µM	> 10 µM	> 10 µM	6.41 µM			CC(COc1no[n+]([O-])c1S(=O)(=O)c1ccccc1)NC(=O)CCCn1nc(-c2ccc3oc(N)nc3c2)c2c(N)ncnc21 (stereo unspecified)	Active	9.59 µM
0.00671 µM	1.48 µM	0.61 µM	0.07 µM			Nc1nc2cc(-c3nn(CCCC(=O)OCCCCOc4no[n+]([O-])c4S(=O)(=O)c4ccccc4)c4ncnc(N)c34)ccc2o1	Active	> 10 µM
0.0042 µM	9.96 µM	5.18 µM	3.5 µM			Nc1nc2cc(-c3nn(CCCC(=O)NCCCOc4no[n+]([O-])c4S(=O)(=O)c4ccccc4)c4ncnc(N)c34)ccc2o1	Active	> 10 µM
0.0079 µM	> 10 µM	6.11 µM	2.05 µM			Nc1nc2cc(-c3nn(CCCC(=O)NCCOc4no[n+]([O-])c4S(=O)(=O)c4ccccc4)c4ncnc(N)c34)ccc2o1	Active	> 10 µM
0.0133 µM	> 10 µM	> 10 µM	7.7 µM			Nc1nc2cc(-c3nn(CCCC(=O)OCc4c(-c5ccccc5)no[n+]4[O-])c4ncnc(N)c34)ccc2o1	Active	> 10 µM
0.0125 µM						Nc1nc2cc(-c3nn(CCCC(=O)OCCCCCO[N+](=O)[O-])c4ncnc(N)c34)ccc2o1		
> 1 µM						Nc1nc2cc(-c3nn(CCCC(=O)OCCc4ccc(OCc5c(-c6ccccc6)no[n+]5[O-])cc4)c4ncnc(N)c34)ccc2o1		
0.00702 µM	1.43 µM	1.39 µM	0.52 µM			Nc1nc2cc(-c3nn(CCCC(=O)OCCOCCOc4no[n+]([O-])c4S(=O)(=O)c4ccccc4)c4ncnc(N)c34)ccc2o1	Active	> 10 µM
0.0129 µM						Nc1nc2cc(-c3nn(CCCC(=O)OCCCCO[N+](=O)[O-])c4ncnc(N)c34)ccc2o1		
> 1 µM						Nc1nc2cc(-c3nn(CCCC(=O)OCc4ccc(OCc5c(-c6ccccc6)no[n+]5[O-])cc4)c4ncnc(N)c34)ccc2o1		
0.0198 µM						Nc1nc2cc(-c3nn(CCCC(=O)OCCCCCCO[N+](=O)[O-])c4ncnc(N)c34)ccc2o1		
	1.73 µM	1.23 µM	0.16 µM			CC(C)n1nc(-c2ccc3oc(N)nc3c2)c2c(N)ncnc21 [SAPANISERTIB]	inactive	> 10 µM
